Here are results for seven molecules from US4822800A (Ortho Pharmaceutical Corporation, priority 1986, dated 1989).

“Also recorded” adds a separate entry of the source. Like-named read-outs stand apart in the source and are kept apart here.

In test [1] the target is T1, Phosphodiesterase fraction III (Canis lupus familiaris, UniProt A0A8I3NYE0).
T1 construct: isolated as an isozyme from the crude canine heart homogenate; from tissue; host or cells: canine heart (crude homogenate, ion exchange chromatography, third and last PDE peak)
T1 sequence (A0A8I3NYE0 1-1135): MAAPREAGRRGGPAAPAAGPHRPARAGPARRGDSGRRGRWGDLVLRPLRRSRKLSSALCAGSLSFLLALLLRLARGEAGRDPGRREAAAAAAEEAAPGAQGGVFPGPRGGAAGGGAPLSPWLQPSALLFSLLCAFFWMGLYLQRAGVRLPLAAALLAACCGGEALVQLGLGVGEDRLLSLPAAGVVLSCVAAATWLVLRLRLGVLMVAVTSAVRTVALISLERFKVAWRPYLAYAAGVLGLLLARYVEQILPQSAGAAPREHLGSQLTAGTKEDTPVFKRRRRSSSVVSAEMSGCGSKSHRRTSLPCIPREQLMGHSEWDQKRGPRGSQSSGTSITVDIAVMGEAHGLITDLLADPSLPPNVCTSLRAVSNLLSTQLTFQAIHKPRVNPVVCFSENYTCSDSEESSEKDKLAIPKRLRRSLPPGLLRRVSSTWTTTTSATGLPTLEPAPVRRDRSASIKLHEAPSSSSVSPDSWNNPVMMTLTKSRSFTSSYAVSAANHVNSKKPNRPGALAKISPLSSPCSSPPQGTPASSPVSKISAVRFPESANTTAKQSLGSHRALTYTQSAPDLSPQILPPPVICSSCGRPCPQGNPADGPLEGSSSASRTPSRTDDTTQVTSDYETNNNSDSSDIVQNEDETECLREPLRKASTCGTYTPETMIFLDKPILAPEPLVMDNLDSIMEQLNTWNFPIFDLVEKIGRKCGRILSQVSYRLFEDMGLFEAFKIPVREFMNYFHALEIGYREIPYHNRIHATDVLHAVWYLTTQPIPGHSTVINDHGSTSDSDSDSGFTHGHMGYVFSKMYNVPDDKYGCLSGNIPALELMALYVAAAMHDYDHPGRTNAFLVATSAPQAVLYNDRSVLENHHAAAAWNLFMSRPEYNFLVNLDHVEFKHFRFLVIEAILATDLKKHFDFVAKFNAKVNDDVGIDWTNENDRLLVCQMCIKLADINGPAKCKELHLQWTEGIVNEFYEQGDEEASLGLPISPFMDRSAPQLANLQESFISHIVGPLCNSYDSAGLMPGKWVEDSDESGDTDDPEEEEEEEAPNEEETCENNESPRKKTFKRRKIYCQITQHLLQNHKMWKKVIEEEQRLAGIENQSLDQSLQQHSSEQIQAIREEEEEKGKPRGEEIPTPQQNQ
Briefly: inhibition of phosphodiesterase fraction III activity. Format: biochemical, canine (heart). To be noted: for IC50: cyclic AMP 0.10-1.0 uM, pH 7.4, canine heart enzyme; for phosphodiesterase fraction III inhibition (in words): summary of Table 5.

Test [2] concerns adult mongrel dogs. In words: acute in vivo cardiotonic activity in anesthetized dogs. Further details: species or system dog (adult mongrel). As to conditions: for change in vivo at 0.1 mg/kg / change in vivo at 1.875 mg/kg / change in vivo at 0.15 mg/kg / change in vivo at 0.375 mg/kg / change in vivo at 0.925 mg/kg / change in vivo at 0.875 mg/kg: Canis lupus familiaris, cardiotonic, relative to controls; for change in vivo at 0.1 mg/kg: dose 0.100 mg/kg intravenous; for change in vivo at 1.875 mg/kg: dose 1.875 mg/kg intravenous; for cardiotonic activity (in words): summary of Table 4; for change in vivo at 0.15 mg/kg: dose 0.150 mg/kg intravenous; for change in vivo at 0.375 mg/kg: dose 0.375 mg/kg intravenous; for change in vivo at 0.925 mg/kg: dose 0.925 mg/kg intravenous; for change in vivo at 0.875 mg/kg: dose 0.875 mg/kg intravenous. The procedure:
The acute in vivo cardiotonic activity of compounds prepared according to the present invention was determined according to a modification of the procedure described by Alousi et al., Circ. Res., 45, 666 (1979).
In particular, adult mongrel dogs were anesthetized with sodium pentobarbital and were artificially respired. Arterial pressure was monitored via a femoral artery, and the pulse pressure was used to trigger a cardiotachometer for heart rate. Left ventricular pressure was determined with a Millar catheter, and dP/dt (the change in ventricular pressure with time) was derived. Cardiac output was determined by measuring ascending aortic blood flow with an electromagnetic flow probe, and myocardial contractile force was measured with a Walton Brodie strain gauge sutured to the right ventricle. Lead II EKG was also recorded.
A standard dose (10 μg/kg/min) of dopamine was administered to assess myocardial responsiveness.
Compounds of the invention were administered by intravenous infusion or bolus […] administration, and the effects on cardiovascular parameters were determined.
Dose related effects of the test compound on blood pressure (BP), heart rate (HR), maximum change in left ventricular pressure with time (dP/dt max),% change in cardiac force (CF) and the increase in mean arterial blood pressure relative to controls (MABP) were compared to pretreatment control values, expressed as a% change and rated for activity.

The subject of test [3] is adult mongrel dogs. Briefly: renal vasodilating activity in anesthetized dogs. The test is classed as in vivo, dog (adult mongrel). To be noted: for change in vivo at 5 mg/kg / change in vivo at 0.2 mg/kg / change in vivo at 1.2 mg/kg / change in vivo at 13.9 mg/kg / change in vivo at up to 13.9 mg/kg: Canis lupus familiaris, renal vasodilator, relative to controls; for change in vivo at 5 mg/kg: dose 5.0 mg/kg intravenous; for renal vasodilating activity (in words): summary of Table 4; for change in vivo at 0.2 mg/kg: dose 0.2 mg/kg intravenous; for change in vivo at 1.2 mg/kg: dose 1.2 mg/kg intravenous; for change in vivo at 13.9 mg/kg / change in vivo at up to 13.9 mg/kg: dose 13.9 mg/kg intravenous. The procedure: Goldberg et al, J. Pharmacol. Exp. Ther., 163, 188 (1968), performed an investigation of the structural requirements for dopamine-like renal vasodilation of phenethylamines and apomorphine. The following procedure is a variation of the assay described in that report.
Adult mongrel dogs were anesthetized and surgically prepared for electromagnetic measurement of renal artery blood flow. A carotid artery was cannulated for measuring arterial blood pressure, and drugs were administered intravenously. Heart rate was monitored with a cardiotachometer. Renal vascular resistance was calculated as the ratio of mean arterial blood pressure/renal artery blood flow. Dopamine was infused intravenously at 3 μg/kg/min for ten minutes (at an infusion rate of about 1 ml/min) to determine responsiveness of each dog to renal dopamine receptor stimulation. Cumulative dose-response data were obtained by infusing a compound of this invention at progressively increasing (usually three-fold) infusion rates, each dose being infused for five minutes. The maximum % increase from pre-drug control in renal artery blood flow (or a decrease in renal vascular resistance) was determined for each infusion dose.
RBF values are percent change in renal blood flow. RVR values are percent change in renal vascular resistance. MABP and HR are percent changes in mean arterial blood pressure and heart rate, respectively, relative to controls.

The mark [4] stands for this setting: read-out: MABP (mean arterial blood pressure).
Where [5] appears, read: read-out: dP/dt (maximum change left ventricular pressure with time).
Setting [6] is: read-out: RBF (renal blood flow).
The mark [7] stands for this setting: read-out: RVR (renal vascular resistance).

Turning to `COc1cc2c(C)nc(O)c(C)c2cc1OC` [AB], in test [1], half-maximal inhibition (IC50) was put at 8.3 µM. Moreover, the “phosphodiesterase fraction III inhibition (in words)” value in test [1] is listed as “inhibit phosphodiesterase fraction III activity”. Besides, the change in vivo at 0.1 mg/kg in test [2] (read-out: CF (cardiac force)) is 80%; in test [2] (read-out: HR (heart rate)) it was 15%; in test [2] (setting [4]) it was -4%; in test [2] (setting [5]), 48%.
`COc1cc2c(CCl)nc(O)c(Cl)c2cc1OC` [AD] had an IC50 in test [1] of 11 µM. Also, the “phosphodiesterase fraction III inhibition (in words)” value in test [1] was “inhibit phosphodiesterase fraction III activity; also recorded: phosphodiesterase fraction III inhibiting properties”. The results for the change in vivo at 5 mg/kg in test [3] (setting [6]) and in test [3] (setting [7]) were 16% and -32%, respectively. Besides, in test [3], the “renal vasodilating activity (in words)” value is recorded as “renal vasodilating properties”. In addition, the change in vivo at 1.875 mg/kg in test [2] (read-out: CF (cardiac force)) was 111%; in test [2] (read-out: HR (heart rate)), 21%; in test [2] (setting [4]) it was -3%; in test [2] (setting [5]), 106%. Also, the “cardiotonic activity (in words)” value in test [2] was “cardiotonic properties”.
With `COc1cc2c(C)nc(O)c(C(C)C)c2cc1OC` [AF], the IC50 in test [1] is 12.3 µM. In addition, in test [1], the “phosphodiesterase fraction III inhibition (in words)” value is “inhibit phosphodiesterase fraction III activity; also recorded: phosphodiesterase fraction III inhibiting properties”. In addition, the change in vivo at 0.2 mg/kg in test [3] (read-out: HR (heart rate)) is 28%; in test [3] (setting [4]), -16%; in test [3] (setting [6]), 11%; in test [3] (setting [7]), -24%. Besides, the “renal vasodilating activity (in words)” value in test [3] was “renal vasodilating properties”. In addition, the change in vivo at 0.15 mg/kg in test [2] (read-out: CF (cardiac force)) is 92%; in test [2] (read-out: HR (heart rate)), 8%; in test [2] (setting [4]), -15%; in test [2] (setting [5]), 60%. In addition, in test [2], the “cardiotonic activity (in words)” value was “cardiotonic properties”.
With `COc1cc(OC)c2c(C)nc(O)cc2c1` [AH], half-maximal inhibition in test [1] (IC50) was put at 80 µM. For the same molecule, the change in vivo at 1.2 mg/kg in test [3] (read-out: HR (heart rate)) is 25%; in test [3] (setting [4]), -6%; in test [3] (setting [6]), 13%; in test [3] (setting [7]), -17%. Besides, the change in vivo at 0.375 mg/kg in test [2] (read-out: CF (cardiac force)) is 50%; in test [2] (read-out: HR (heart rate)) it was 6%; in test [2] (setting [4]), -3%; in test [2] (setting [5]), 46%.
`COc1ccc2c(C)nc(O)cc2c1` [AI] gave an IC50 in test [1] of 160 µM. Further, the change in vivo at 1.2 mg/kg in test [3] (read-out: HR (heart rate)) is 4%; in test [3] (setting [4]), -1%; in test [3] (setting [6]) it was 7%; in test [3] (setting [7]), -7%. The change in vivo at 0.925 mg/kg was determined as 65% in test [2] (read-out: CF (cardiac force)), 8% in test [2] (read-out: HR (heart rate)), 0% in test [2] (setting [4]) and 56% in test [2] (setting [5]).
`COC(=O)C(C)Cc1c(O)nc(C)c2cc(OC)c(OC)cc12` (stereo not shown) [O]: the change in vivo at 13.9 mg/kg in test [3] (setting [6]) was 15%. The change in vivo at up to 13.9 mg/kg in test [3] (setting [7]) was -18%. In addition, the change in vivo at 1.875 mg/kg in test [2] (read-out: CF (cardiac force)) is 100%; in test [2] (read-out: HR (heart rate)), 21%; in test [2] (setting [4]), 0%; in test [2] (setting [5]) it was 67%.
As to `COC(=O)Cc1c(O)nc(C)c2cc(OC)c(OC)cc12` [W], the change in vivo at 13.9 mg/kg in test [3] (setting [6]) worked out at 64%. Moreover, the change in vivo at up to 13.9 mg/kg in test [3] (setting [7]) was -62%. The change in vivo at 0.875 mg/kg was 42% in test [2] (read-out: CF (cardiac force)), 6% in test [2] (read-out: HR (heart rate)), -1% in test [2] (setting [4]) and 28% in test [2] (setting [5]).
